Test results from US20110021565A1, “PIPERIDINE DERIVATIVES AS NK3 ANTAGONISTS” (priority 2007, published 2011).
Structures can show the parent of a compound that is named as a salt. Where two headings read alike, the source gives them in different places.

Target: T1, recombinant human NK3 receptor (Homo sapiens, UniProt P29371)
T1 construct: expressed in transfected cells; host or cells: HEK293 cells, transient expression; membrane preparation
T1 sequence (P29371 1-465): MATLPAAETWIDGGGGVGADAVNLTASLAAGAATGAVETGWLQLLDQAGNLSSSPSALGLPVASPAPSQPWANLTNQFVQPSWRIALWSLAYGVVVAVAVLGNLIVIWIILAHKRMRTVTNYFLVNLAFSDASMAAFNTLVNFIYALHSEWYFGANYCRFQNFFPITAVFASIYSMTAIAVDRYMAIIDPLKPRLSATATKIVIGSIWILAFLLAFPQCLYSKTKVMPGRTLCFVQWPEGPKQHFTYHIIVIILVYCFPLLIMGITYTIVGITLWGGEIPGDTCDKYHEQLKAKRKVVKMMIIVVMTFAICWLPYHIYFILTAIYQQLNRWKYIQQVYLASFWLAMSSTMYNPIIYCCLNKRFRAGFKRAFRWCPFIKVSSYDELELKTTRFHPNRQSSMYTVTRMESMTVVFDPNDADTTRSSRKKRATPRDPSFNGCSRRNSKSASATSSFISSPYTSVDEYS
Experiment: [3H]SR142801 competition binding assay
Method: [^3H]SR142801 Competition Binding Assay
hNK3 receptor binding experiment were performed using [^3H]SR142801 (Catalog No. TRK1035, specific activity: 74.0 Ci/mmol, Amersham, GE Healthcare UK limited, Buckinghamshire, UK) and membrane isolated from HEK293 cells transiently expressing recombinant human NK3 receptor. After thawing, the membrane homogenates were centrifuged at 48,000×g for 10 min at 4° C., the pellets were resuspended in the 50 mM Tris-HCl, 4 mM MnCl2, 1 μM phosphoramidon, 0.1% BSA binding buffer at pH 7.4 to a final assay concentration of 5 μg protein/well. For inhibition experiments, membranes were incubated with [^3H]SR142801 at a concentration equal to KD value of radioligand and 10 concentrations of the inhibitory compound (0.0003-10 μM) (in a total reaction volume of 500 μl) for 75 min at room temperature (RT). At the end of the incubation, membranes were filtered onto unitfilter (96-well white microplate with bonded GF/C filter preincubated 1 h in 0.3% PEI+0.3% BSA, Packard BioScience, Meriden, Conn.) with a Filtermate 196 harvester (Packard BioScience) and washed 4 times with ice-cold 50 mM Tris-HCl, pH 7.4 buffer. Nonspecific binding was measured in the presence of 10 μM SB222200 for both radioligands. The radioactivity on the filter was counted (5 min) on a Packard Top-count microplate scintillation counter with quenching correction after addition of 45 μl of microscint 40 (Canberra Packard S. A., Zurich, Switzerland) and shaking for 1 h. Inhibition curves were fitted according to the Hill equation: y=100/(1+(x/IC50)^nH), where nH=slope factor using Excel-fit 4 software ([…]). IC50 values were derived from the inhibition curve and the affinity constant (IQ values were calculated using the Cheng-Prussoff equation Ki=IC50/(1+[L]/KD) where [L] is the concentration of radioligand and KD is its dissociation constant at the receptor, derived from the saturation isotherm. All experiments were performed in duplicate and the mean±standard error (SEM) of the individual Ki values was calculated.

[1] = [3H]SR142801, membranes of HEK293 cells transiently expressing recombinant human NK3 receptor, read-out: hNK3 Ki
[2] = representative compounds, [3H]SR142801, HEK293 membranes, human NK3 receptor, read-out: Ki NK3 h

Ki [1] [nM] | Ki [2] [nM] | SMILES
171 |  | CN(Cc1ccc(F)c(C(F)(F)F)c1)C(=O)C(C)(CCN1CCC(N2CCCC2=O)CC1)c1ccc(Cl)c(Cl)c1 (single isomer, unassigned) [Example 118, (S or R)-2-(3,4-Dichloro-phenyl)-N-(4-fluoro-3-trifluoromethyl-benzyl)-2,N-dimethyl-4-[4-(2-oxo-pyrrolidin-1-yl)-piperidin-1-yl]-butyramide; hydrochloride]
0.8 | 0.8 | CN(Cc1ccc(F)c(C(F)(F)F)c1)C(=O)C(C)(CCN1CCC(N2CCCC2=O)CC1)c1ccc(Cl)c(Cl)c1 (single isomer, unassigned) [Example 119, (R or S)-2-(3,4-Dichloro-phenyl)-N-(4-fluoro-3-trifluoromethyl-benzyl)-2,N-dimethyl-4-[4-(2-oxo-pyrrolidin-1-yl)-piperidin-1-yl]-butyramide; hydrochloride]
2 | 2 | C[C@](CCN1CCC(N2CCCC2=O)CC1)(C(=O)N[C@H](CO)c1ccc(Cl)c(Cl)c1)c1ccc(Cl)c(Cl)c1 (single isomer, unassigned) [Example 120, (R or S)-2-(3,4-Dichloro-phenyl)-N-[(S or R)-1-(3,4-dichloro-phenyl)-2-hydroxy-ethyl]-2-methyl-4-[4-(2-oxo-pyrrolidin-1-yl)-piperidin-1-yl]-butyramide]
173 |  | CC(=O)N(C)C1CCN(CCC(C)(C(=O)N(C)Cc2ccc(F)c(C(F)(F)F)c2)c2ccc(Cl)c(Cl)c2)CC1 (single isomer, unassigned) [Example 121, (S or R)-4-[4-(Acetyl-methyl-amino)-piperidin-1-yl]-2-(3,4-dichloro-phenyl)-N-(4-fluoro-3-trifluoromethyl-benzyl)-2,N-dimethyl-butyramide]
1.5 | 1.5 | CC(=O)N(C)C1CCN(CCC(C)(C(=O)N(C)Cc2ccc(F)c(C(F)(F)F)c2)c2ccc(Cl)c(Cl)c2)CC1 (single isomer, unassigned) [Example 122, (R or S)-4-[4-(Acetyl-methyl-amino)-piperidin-1-yl]-2-(3,4-dichloro-phenyl)-N-(4-fluoro-3-trifluoromethyl-benzyl)-2,N-dimethyl-butyramide]
800 |  | CN(Cc1ccc(C(F)(F)F)c(F)c1)C(=O)C(C)(CCN1CCC(NS(C)(=O)=O)CC1)c1ccc(Cl)c(Cl)c1 (single isomer, unassigned) [Example 123, (S or R)-2-(3,4-Dichloro-phenyl)-N-(3-fluoro-4-trifluoromethyl-benzyl)-4-(4-methanesulfonylamino-piperidin-1-yl)-2,N-dimethyl-butyramide]
18.8 |  | CN(Cc1ccc(C(F)(F)F)c(F)c1)C(=O)C(C)(CCN1CCC(NS(C)(=O)=O)CC1)c1ccc(Cl)c(Cl)c1 (single isomer, unassigned) [Example 124, (R or S)-2-(3,4-Dichloro-phenyl)-N-(3-fluoro-4-trifluoromethyl-benzyl)-4-(4-methanesulfonylamino-piperidin-1-yl)-2,N-dimethyl-butyramide]
8.2 | 8.2 | CC(CCN1CCC(N2CCCC2=O)CC1)(C(=O)N[C@@H](CO)c1ccc(F)cc1)c1ccc(Cl)c(Cl)c1 (single isomer, unassigned) [Example 129, 2-(3,4-Dichloro-phenyl)-N-[(R)-1-(4-fluoro-phenyl)-2-hydroxy-ethyl]-2-(R or S) methyl-4-[4-(2-oxo-pyrrolidin-1-yl)-piperidin-1-yl]-butyramide]
101 |  | CC(CCN1CCC(N2CCCC2=O)CC1)(C(=O)N[C@@H](CO)c1ccc(F)cc1)c1ccc(Cl)c(Cl)c1 (single isomer, unassigned) [Example 130, 2-(3,4-Dichloro-phenyl)-N-[(R)-1-(4-fluoro-phenyl)-2-hydroxy-ethyl]-2-(S or R) methyl-4-[4-(2-oxo-pyrrolidin-1-yl)-piperidin-1-yl]-butyramide]
1.7 | 1.7 | COCCN(C(C)=O)C1CCN(CCC(C)(C(=O)N[C@@H](CO)c2ccc(F)cc2)c2ccc(Cl)c(Cl)c2)CC1 (single isomer, unassigned) [Example 150, 4-{4-[Acetyl-(2-methoxy-ethyl)-amino]-piperidin-1-yl}-2-(3,4-dichloro-phenyl)-N-[(R)-1-(4-fluoro-phenyl)-2-hydroxy-ethyl]-2-(R or S) methyl-butyramide]
21.1 |  | COCCN(C(C)=O)C1CCN(CCC(C)(C(=O)N[C@@H](CO)c2ccc(F)cc2)c2ccc(Cl)c(Cl)c2)CC1 (single isomer, unassigned) [Example 151, 4-{4-[Acetyl-(2-methoxy-ethyl)-amino]-piperidin-1-yl}-2-(3,4-dichloro-phenyl)-N-[(R)-1-(4-fluoro-phenyl)-2-hydroxy-ethyl]-2-(S or R) methyl-butyramide]
5.5 | 5.5 | CN(C1CCN(CCC(C)(C(=O)N[C@@H](CO)c2ccc(Cl)c(Cl)c2)c2ccc(Cl)c(Cl)c2)CC1)S(C)(=O)=O (single isomer, unassigned; diastereoisomer 1) [Example 49, 2-(3,4-Dichloro-phenyl)-N-[1-(3,4-dichloro-phenyl)-2-hydroxy-ethyl]-4-[4-(methanesulfonyl-methyl-amino)-piperidin-1-yl]-2-methyl-butyramide; diastereoisomer 1]
1.5 | 1.5 | CCN(C1CCN(CCC(C)(C(=O)N[C@@H](CO)c2ccc(Cl)c(Cl)c2)c2ccc(Cl)c(Cl)c2)CC1)S(C)(=O)=O (single isomer, unassigned; diastereoisomer 1) [Example 79, 2-(3,4-Dichloro-phenyl)-N-[1-(3,4-dichloro-phenyl)-2-hydroxy-ethyl]-4-[4-(ethyl-methanesulfonyl-amino)-piperidin-1-yl]-2-methyl-butyramide; diastereoisomer 1]
3 | 3 | CC(CCN1CCC(N2CCCC2=O)CC1)(C(=O)N[C@@H](CO)c1ccc(Cl)c(Cl)c1)c1ccc(Cl)c(Cl)c1 (single isomer, unassigned; diastereoisomer 1) [Example 94, 2-(3,4-Dichloro-phenyl)-N-[-1-(3,4-dichloro-phenyl)-2-hydroxy-ethyl]-2-methyl-4-[4-(2-oxo-pyrrolidin-1-yl)-piperidin-1-yl]-butyramide; diastereoisomer 1]
5.6 | 5.6 | CC(=O)N(C)C1CCN(CCC(C)(C(=O)N[C@@H](CO)c2ccc(Cl)c(Cl)c2)c2ccc(Cl)c(Cl)c2)CC1 (single isomer, unassigned; diastereoisomer 1) [Example 109, 4-[4-(Acetyl-methyl-amino)-piperidin-1-yl]-2-(3,4-dichloro-phenyl)-N-[1-(3,4-dichloro-phenyl)-2-hydroxy-ethyl]-2-methyl-butyramide; diastereoisomer 1]
29.3 |  | CC(=O)N(C)C1CCN(CCC(C)(C(=O)NC(CO)c2ccc(F)cc2)c2ccc(Cl)c(Cl)c2)CC1 (single isomer, unassigned; diastereoisomer 1) [Example 138, 4-[4-(Acetyl-methyl-amino)-piperidin-1-yl]-2-(3,4-dichloro-phenyl)-N-[1-(4-fluoro-phenyl)-2-hydroxy-ethyl]-2-methyl-butyramide (diastereoisomer 1)]
33.3 |  | CC(=O)N(C1CC1)C1CCN(CCC(C)(C(=O)N[C@@H](CO)c2ccc(F)cc2)c2ccc(Cl)c(Cl)c2)CC1 (single isomer, unassigned; diastereoisomer 1) [Example 140, 4-[4-(Acetyl-cyclopropyl-amino)-piperidin-1-yl]-2-(3,4-dichloro-phenyl)-N-[1-(4-fluoro-phenyl)-2-hydroxy-ethyl]-2-methyl-butyramide (diastereoisomer 1)]
